Test results taken from patent publication US20060166992A1, “Heterocyclically substituted imidazotriazines” (Bayer Healthcare A G, priority 2002, published 2006).

Tests used:
PDE 10A = target: T1, PDE 10A (Homo sapiens, UniProt Q9Y233); test: Inhibition of PDE 10A (scintillation proximity assay, [3H]cAMP substrate); type: biochemical; settings: recombinant full-length PDE 10A expressed in Sf9 insect cells; 60 min at 20° C.
T1 construct: is expressed recombinantly in full length in Sf9 insect cells; made in house; host or cells: Sf9 insect cells (Bac-to-Bac baculovirus expression system)
Description: PDE 10A (WO 01/29 199, FIG. 1A) is expressed recombinantly in full length in Sf9 insect cells (Invitrogen, Carlsbad, Calif.) with the aid of the Bac-to-Bac™ Baculovirus expression system from Life Technologies (Gaithersburg, Md.). 48 h after infection, the cells are harvested and suspended in 20 ml (per 11 of culture) of lysis buffer (50 mM tris HCl, pH 7.4, 50 mM NaCl, 1 mM MgCl2, 1.5 mM EDTA, 10% glycerol plus 20 μl of Protease Inhibitor Cocktail Set II [CalBiochem, La Jolla, Calif. USA]). The cells are treated with ultrasound at 4° C. for 1 minute and subsequently centrifuged at 10 000 rpm for 30 minutes at 4° C. The supernatant (PDE 10A preparation) was collected and stored at −20° C.
The test substances are dissolved in 100% DMSO for the determination of their in vitro action on PDE 10A and serially diluted. Typically, dilution series from 200 μM to 1.6 μM are prepared (resulting final concentrations in the test: 4 μM to 0.032 μM). 2 μl of the diluted substance solutions in each case are introduced into the hollows of microtiter plates (Isoplate; Wallac Inc., Atlanta, Ga.). Subsequently, 50 μl of a dilution of the PDE 10A preparation described above are added. The dilution of the PDE 10A preparation is chosen such that during the later incubation less than 70% of the substrate is reacted (typical dilution: 1:10 000; dilution buffer: 50 mM tris/HCl pH 7.5, 8.3 mM MgCl2, 1.7 mM EDTA, 0.2% BSA). The substrate, [5′,8-^3H] adenosine 3′,5′-cyclic phosphate (1 μCi/μl; Amersham Pharmacia Biotech., Piscataway, N.J.) is diluted 1:2000 with assay buffer (50 mM tris/HCl pH 7.5, 8.3 mM MgCl2, 1.7 mM EDTA) to a concentration of 0.0005 μCi/μl. The enzyme reaction is finally started by addition of 50 μl (0.025 μCi) of the diluted substrate. The test batches are incubated for 60 min at 20° C. and the reaction is stopped by addition of 25 μl of a suspension containing 18 mg/ml of Yttrium Scintillation Proximity Beads (Amersham Pharmacia Biotech., Piscataway, N.J.). The microtiter plates are sealed using a film and allowed to stand for 60 min at 20° C. Subsequently, the plates are measured for 30 s per hollow in a Microbeta scintillation counter (Wallac Inc., Atlanta, Ga.). IC50 values are determined by means of graphic plotting of the substance concentration against the percentage inhibition.
The PDE 10A-inhibiting action of the compounds according to the invention may be shown by the following examples: […]

haloperidol catalepsy [1] = test: Catalepsy test on rats (potentiation of haloperidol catalepsy); type: in vivo; settings: 3 mg/kg intraperitoneal together with haloperidol (0.3 mg/kg s.c.), significant
Description: The period of time which elapses up to the correction of an imposed position can be used as a measure of the intensity of catalepsy.
A low dose of haloperidol (0.3 mg/kg s.c.) is given on its own 30 min before the catalepsy test or administered together with the compound. In order to measure the cataleptic behavior, both forepaws of the rat are put onto a block of wood of 9 cm height and 5.5 cm width×5.5 cm depth. The time which elapses until an animal pulls its forepaws down from the block again is recorded as the duration of catalepsy. All rats are taken from the block of wood after 60 seconds at the latest. The data acquired from each treatment group (10 animals in each case) are analyzed statistically by means of variance analysis (ANOVA).

haloperidol catalepsy [2] = settings: described in EP-A 1 250 923; cited from earlier work

T1 sequence (Q9Y233 1-779 isoform Q9Y233-1): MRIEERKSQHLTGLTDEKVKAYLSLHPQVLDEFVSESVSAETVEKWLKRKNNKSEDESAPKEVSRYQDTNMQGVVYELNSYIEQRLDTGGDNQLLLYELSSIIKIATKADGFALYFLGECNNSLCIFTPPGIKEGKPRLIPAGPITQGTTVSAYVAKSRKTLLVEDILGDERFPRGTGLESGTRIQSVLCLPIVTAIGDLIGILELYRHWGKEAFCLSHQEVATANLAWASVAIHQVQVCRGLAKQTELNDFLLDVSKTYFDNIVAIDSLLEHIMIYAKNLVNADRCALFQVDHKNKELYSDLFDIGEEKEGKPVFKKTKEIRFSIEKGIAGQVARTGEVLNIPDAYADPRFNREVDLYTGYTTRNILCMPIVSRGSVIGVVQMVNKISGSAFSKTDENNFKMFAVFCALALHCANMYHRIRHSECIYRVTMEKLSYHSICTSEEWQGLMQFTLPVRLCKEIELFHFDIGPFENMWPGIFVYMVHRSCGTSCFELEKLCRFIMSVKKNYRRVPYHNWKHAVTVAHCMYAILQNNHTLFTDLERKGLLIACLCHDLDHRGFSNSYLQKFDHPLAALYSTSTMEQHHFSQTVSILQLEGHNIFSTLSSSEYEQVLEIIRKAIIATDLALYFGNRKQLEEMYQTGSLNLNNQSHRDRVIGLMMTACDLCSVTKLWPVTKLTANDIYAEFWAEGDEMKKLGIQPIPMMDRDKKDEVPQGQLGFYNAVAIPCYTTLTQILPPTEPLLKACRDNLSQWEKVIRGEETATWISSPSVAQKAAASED

| Compound | IC50 (PDE 10A) [nM] | increase in the duration of catalepsy (haloperidol catalepsy [1]) [%] | effect on haloperidol catalepsy (haloperidol catalepsy [2]) |
| --- | --- | --- | --- |
| COc1cc(Nc2nc(-c3cnc(C)s3)nn3c(C)nc(C)c23)cc(OC)c1OC [Example 12, 5,7-Dimethyl-2-(2-methyl-1,3-thiazol-5-yl)-N-(3,4,5-trimethoxyphenyl)imidazo-[5,1-f][1,2,4]triazin-4-amine] | 93 |  |  |
| COc1ccc(Cc2nccc3cc(OC)c(OC)cc23)cc1OC [papaverine] |  |  | potentiation of haloperidol catalepsy |
| COc1cc(Nc2nc(-c3ccncc3)nn3c(C)nc(C)c23)cc(OC)c1OC [Example 14] | 150 |  |  |

Further lines, with some results ahead:

| IC50 (PDE 10A) [nM] | Compound | increase in the duration of catalepsy (haloperidol catalepsy [1]) [%] | effect on haloperidol catalepsy (haloperidol catalepsy [2]) |
| --- | --- | --- | --- |
| 30 | COc1cc(Nc2nc(-c3cccnc3)nn3c(C)nc(C)c23)cc(OC)c1OC [Example 16] | 103 |  |
| 38 | COc1cc(Oc2nc(-c3ccc(C)nc3)nn3c(C)nc(C)c23)cc(OC)c1OC [Example 9] |  |  |
| 8 | COc1cc(Oc2nc(-c3cccnc3)nn3c(C(C)C)nc(C)c23)cc(OC)c1OC [Example 10, 7-isopropyl-5-methyl-2-(3-pyridinyl)-4-(3,4,5-trimethoxyphenoxy)imidazo[5,1-f][1,2,4]triazine] |  |  |
